Measurements from patent US20040171086A1, “Selective modulation of TLR-mediated biological activity” (3M Innovative Properties Company, priority 2003, published 2004).

Columns and labels:
TLR6 = target: T1, TLR6 (Homo sapiens, UniProt Q9Y2C9); assay: IFN-α1-luciferase reporter assay in genetically modified Namalwa cells, TLR6; format: cell-based; settings: 10 μM IRM, 18 hours
T1 construct: expressed in transfected cells; host or cells: Namalwa (ATCC CRL-1432), pCI-TLR6 vector, G418 selected
T1 sequence (Q9Y2C9 32-796): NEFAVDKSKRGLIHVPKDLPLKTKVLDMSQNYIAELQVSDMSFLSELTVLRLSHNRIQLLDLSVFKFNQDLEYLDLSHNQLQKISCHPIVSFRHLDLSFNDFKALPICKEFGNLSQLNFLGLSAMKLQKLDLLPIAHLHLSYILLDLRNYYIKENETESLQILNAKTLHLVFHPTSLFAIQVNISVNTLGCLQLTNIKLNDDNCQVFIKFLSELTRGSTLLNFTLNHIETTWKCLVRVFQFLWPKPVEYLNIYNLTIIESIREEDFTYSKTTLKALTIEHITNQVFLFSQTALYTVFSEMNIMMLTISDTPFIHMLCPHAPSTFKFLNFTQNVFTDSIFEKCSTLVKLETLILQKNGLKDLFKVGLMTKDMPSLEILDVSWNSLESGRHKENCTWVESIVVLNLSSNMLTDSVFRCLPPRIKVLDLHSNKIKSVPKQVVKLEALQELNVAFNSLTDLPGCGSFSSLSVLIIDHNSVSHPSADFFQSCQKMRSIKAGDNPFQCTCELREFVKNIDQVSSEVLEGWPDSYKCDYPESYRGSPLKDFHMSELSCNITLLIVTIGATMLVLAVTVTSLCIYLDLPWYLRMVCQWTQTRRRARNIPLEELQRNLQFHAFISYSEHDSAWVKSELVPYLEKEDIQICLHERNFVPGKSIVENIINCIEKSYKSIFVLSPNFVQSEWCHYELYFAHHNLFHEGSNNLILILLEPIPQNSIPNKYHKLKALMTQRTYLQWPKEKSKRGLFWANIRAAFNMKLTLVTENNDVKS
Protocol: (§1) Results are shown in Table 6 and are expressed as fold induction of IFN-α1 —induced luciferase signal, again with respect to a vehicle control.
(§2) The assay identified TLR6-selective compounds (i.e., compounds that modulate TLR6-mediated activity, but not TLR7-mediated activity), TLR7-selective compounds (compounds that modulate TLR7-mediated activity, but not TLR6-mediated activity), and compounds that modulate cellular activity through both TLR6 and TLR7.
(§3) Unless otherwise indicated, all incubations were performed at 37° C. with 5% CO2 at 98% humidity.
(§4) Culture medium was prepared from complete RPMI 1640 medium (BioSource International, Inc., Camarillo, Calif.). Fetal bovine serum (Atlas Biologicals, Inc., Ft. Collins, Colo.) was added to a final concentration of 7.5% (vol/vol); L-glutamine (BioSource International, Inc.) was added to 5 mM; and sodium pyruvate (BioSource International, Inc.) was added to 1 mM.
Namalwa cells were grown by incubation in culture medium overnight. Cells were harvested by centrifugation in a tabletop centrifuge (1200 RPM for 5 minutes), and then resuspended in phosphate buffered sucrose to a concentration of 1.3×10^7 cells/mL.
For each transfection, a 750 μL aliquot of the cell suspension was placed in an electroporation cuvette with 4 mm gaps. 10 μg of the pIFN-α1-luc vector and 10 μg of the pCI-TLR6 vector were added to the electroporation cuvette. The cell and vector mixtures were incubated at room temperature for 5 minutes. The cells were electroporated using a BioRad Gene Pulser (BioRad Laboratories, Hercules, Calif.) set to at 500 μF capacitance and […], then incubated at room temperature for 5 minutes.
(§5) The electroporated cells were suspended in 10 mLs of culture medium and incubated overnight. Dead cells and debris were removed after 24 hours using a MACS Dead Cell Removal kit (Miltenyi Biotec, Auburn, Calif.). Cells were resuspended in 10 mL of culture medium and incubated for an additional 24 hours.
(§6) Transfected cells were selected by adding G418 (Promega Corp., Madison, Wis.) to a final concentration of 1 mg/mL and incubating the cells for seven days.
(§7) The selected transfected cells were counted and resuspended to a concentration of 1×10^6 cell per mL in culture medium. 100 μl aliquots of cells were placed in the wells of a white-walled, white-bottomed 96-well plate (Corning, Inc., Corning, N.Y.). 1.0 μL of an IRM compound from Table 1 (prepared at 1 mM in 100% DMSO) was added to some cell aliquots so that the final concentration of IRM compound was 10 μM. As a positive control, some cell aliquots were incubated with Sendai virus instead of IRM compound. As a negative control, some cell aliquots were incubated with DMSO without IRM compound. In all cases, the cells were incubated for 18 hours.
(§8) The plates were equilibrated to room temperature before one volume of reconstituted LucLight Plus (Packard Instruments, Meriden, Conn.) was added to each aliquot of cells. Each well of the plate was read on an LJL Analyst (LJL Biosystems, Inc., Sunnyvale, Calif.) set with a 5 minute dark adapt. Results are shown in Table 6 and are expressed as fold increase of the IFN-αl—induced luciferase signal compared to a DMSO control.

TLR7 = target: T2, TLR7 (Homo sapiens, UniProt Q9NYK1); assay: IFN-α1-luciferase reporter assay in genetically modified Namalwa cells, TLR7; format: cell-based; parameters: expressed in transfected cells; host or cells: Namalwa (ATCC CRL-1432); settings: 10 μM IRM, 18 hours
T2 sequence (Q9NYK1 27-1049): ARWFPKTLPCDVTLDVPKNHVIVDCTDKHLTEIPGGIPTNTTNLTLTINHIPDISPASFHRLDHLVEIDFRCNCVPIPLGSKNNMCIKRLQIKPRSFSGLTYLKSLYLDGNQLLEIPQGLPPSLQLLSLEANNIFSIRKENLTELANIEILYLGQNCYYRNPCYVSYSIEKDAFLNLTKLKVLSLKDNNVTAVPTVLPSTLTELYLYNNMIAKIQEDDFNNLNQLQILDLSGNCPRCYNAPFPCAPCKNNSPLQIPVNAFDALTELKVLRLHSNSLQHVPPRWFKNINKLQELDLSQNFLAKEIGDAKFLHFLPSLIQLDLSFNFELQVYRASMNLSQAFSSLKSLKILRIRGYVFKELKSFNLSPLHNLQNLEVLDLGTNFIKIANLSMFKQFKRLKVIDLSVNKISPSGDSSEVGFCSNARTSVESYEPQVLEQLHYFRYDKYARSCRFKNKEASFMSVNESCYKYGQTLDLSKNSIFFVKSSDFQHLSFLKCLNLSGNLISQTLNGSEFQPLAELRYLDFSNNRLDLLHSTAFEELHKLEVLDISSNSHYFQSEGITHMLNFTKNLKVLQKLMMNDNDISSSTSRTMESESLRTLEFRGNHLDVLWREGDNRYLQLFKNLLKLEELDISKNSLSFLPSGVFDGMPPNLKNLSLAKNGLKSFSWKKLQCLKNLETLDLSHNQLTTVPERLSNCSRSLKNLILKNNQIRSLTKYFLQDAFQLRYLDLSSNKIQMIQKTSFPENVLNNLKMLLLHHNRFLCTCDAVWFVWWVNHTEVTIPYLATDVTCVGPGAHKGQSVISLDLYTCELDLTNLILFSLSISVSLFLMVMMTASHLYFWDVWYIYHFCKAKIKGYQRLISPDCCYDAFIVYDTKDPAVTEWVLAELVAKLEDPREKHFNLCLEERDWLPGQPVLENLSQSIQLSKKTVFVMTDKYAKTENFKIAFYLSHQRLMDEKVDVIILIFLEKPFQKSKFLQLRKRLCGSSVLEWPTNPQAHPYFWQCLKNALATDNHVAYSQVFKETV
Protocol: as §1, §2, §3, §4
Namalwa cells were grown by incubation in culture medium overnight. Cells were harvested by centrifugation in a tabletop centrifuge (1200 RPM for 5 minutes), and then resuspended in phosphate buffered sucrose to a concentration of 1.3×10^7 cells/mL. […]
as §5, §6, §7, §8

| TLR6: fold increase of the IFN-α1-induced luciferase signal compared to a DMSO control (TLR6) | TLR7: fold increase of the IFN-α1-induced luciferase signal compared to a DMSO control (TLR7) | SMILES |
| --- | --- | --- |
| 6.10 fold increase | 1.60 fold increase | CCCCc1nc2c(N)nc3ccc(OCC(=O)N4CCOCC4)cc3c2n1C [IRM44, 2-[(4-amino-2-butyl-1-methyl-1H-imidazo[4,5-c]quinolin-8-yl)oxy]-1-morpholin-1-ylethanone] |
| 5.56 fold increase | 1.87 fold increase | CCC(COCCCc1ccccc1)n1cnc2c(N)nc3ccccc3c21 (stereo not shown) [IRM45, 1-{1-[(3-phenylpropoxy)methyl]propyl}-1H-imidazo[4,5-c]quinolin-4-amine] |
| 3.75 fold increase | 1.83 fold increase | Nc1nc2ccccc2c2c1ncn2CCCC(=O)c1ccccc1 [IRM46, 4-(4-amino-1H-imidazo[4,5-c]quinolin-1-yl)-1-phenylbutan-1-one] |
| 9.42 fold increase | 1.91 fold increase | Cc1nc2c(N)nc3ccccc3c2n1CCOCC#Cc1ccccc1 [IRM47, 2-methyl-1-{2-[(3-phenylprop-2-ynyl)oxy]ethyl}-1H-imidazo[4,5-c]quinolin-4-amine] |
| 4.56 fold increase | 1.62 fold increase | CCc1nc2c(N)nc3ccc(OCc4ccccc4)cc3c2n1CCCCNC(=O)c1ccccc1 [IRM48, N-{4-[4-amino-8-(benzyloxy)-2-ethyl-1H-imidazo[4,5-c]quinolin-1-yl]butyl}benzamide] |
| 10.92 fold increase | 1.95 fold increase | COCCc1nc2c(N)nc3ccccc3c2n1CCOCCNC(=O)N1CCOCC1 [IRM49, N-(2-{2-[4-amino-2-(2-methoxyethyl)-1H-imidazo[4,5-c]quinolin-1-yl]ethoxy}ethyl)morpholine-4-carboxamide] |
| 8.80 fold increase | 1.91 fold increase | CCc1nc2c(N)nc3ccccc3c2n1CCCCSC(C)C [IRM50] |
| 3.67 fold increase | 1.74 fold increase | COCCc1nc2c(N)nc3ccccc3c2n1CCOCCNC(=O)c1ccc(C(=O)NCCOCCn2c(CCOC)nc3c(N)nc4ccccc4c32)cc1 [IRM51, N,N′-bis(2-{2-[4-amino-2-(2-methoxyethyl)-1H-imidazo[4,5-c]quinolin-1-yl]ethoxy}ethyl)terephthalamide] |
